Data reported in ChEMBL document CHEMBL1201862, “PubChem BioAssay data set” (2004).
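Step 1: Grow cells in 96-well plates. Step 2: Expose to compound for 48 hours at 5 concentrations. Step 3: Interpolate endpoints linearly; if unreached, use highest concentration. At the GI50, growth is halved.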 Activity calls are given as the source filed them. Cut-off read from the data, not from the text of the source: active = GI50 up to about 1.1 µM and inactive = higher.

How the values were obtained:
Assay in all cases: DTP human tumour cell line panel, 48 h
MDA-MB-435 = test system: MDA-MB-435
HOP-92 = test system: HOP-92
HOP-62 = test system: HOP-62
NCI/ADR-RES = test system: NCI/ADR-RES
OVCAR-8 = test system: OVCAR-8
Malme-3M = test system: Malme-3M
LOX IMVI = test system: LOX IMVI
HL-60 = test system: HL-60
HCT-116 = test system: HCT-116
MDA-N = test system: MDA-N
SK-MEL-28 = test system: SK-MEL-28
UACC-62 = test system: UACC-62
Hs-578T = test system: Hs-578T
SNB-19 = test system: SNB-19
SK-MEL-5 = test system: SK-MEL-5
UO-31 = test system: UO-31
CCRF-CEM = test system: CCRF-CEM
HCT-15 = test system: HCT-15
EKVX = test system: EKVX
ACHN = test system: ACHN
CAKI-1 = test system: CAKI-1
KM12 = test system: KM12
PC-3 = test system: PC-3
M14 = test system: M14
BT-549 = test system: BT-549
UACC-257 = test system: UACC-257
OVCAR-5 = test system: OVCAR-5
A498 = test system: A498
DU-145 = test system: DU-145
A549 = test system: A549
SF-268 = test system: SF-268
SW-620 = test system: SW-620
SNB-75 = test system: SNB-75
OVCAR-4 = test system: OVCAR-4
786-0 = test system: 786-0
K562 = test system: K562
TK-10 = test system: TK-10
IGROV-1 = test system: IGROV-1
OVCAR-3 = test system: OVCAR-3
U-251 = test system: U-251
MCF7 = test system: MCF7
SK-OV-3 = test system: SK-OV-3
MOLT-4 = test system: MOLT-4
HT-29 = test system: HT-29
NCI-H226 = test system: NCI-H226
MDA-MB-231 = test system: MDA-MB-231
NCI-H23 = test system: NCI-H23
HCC 2998 = test system: HCC 2998
RPMI-8226 = test system: RPMI-8226
SK-MEL-2 = test system: SK-MEL-2
COLO 205 = test system: COLO 205
T47D = test system: T47D
SN12C = test system: SN12C
SF-295 = test system: SF-295
NCI-H522 = test system: NCI-H522
NCI-H460 = test system: NCI-H460
SF-539 = test system: SF-539
RXF 393 = test system: RXF 393

NNS(=O)(=O)c1ccc(/C=C2\NC(=O)NC2=O)cc1
GI50 (MDA-MB-435): > 100 µM (inactive) | GI50 (HOP-92): > 100 µM (inactive) | GI50 (HOP-62): > 100 µM (inactive) | GI50 (NCI/ADR-RES): > 100 µM (inactive) | GI50 (OVCAR-8): > 100 µM (inactive) | GI50 (Malme-3M): > 100 µM (inactive) | GI50 (LOX IMVI): > 100 µM (inactive) | GI50 (HL-60): > 100 µM (inactive) | GI50 (HCT-116): > 100 µM (inactive) | GI50 (MDA-N): > 100 µM (inactive) | GI50 (SK-MEL-28): > 100 µM (inactive) | GI50 (UACC-62): > 100 µM (inactive) | GI50 (Hs-578T): > 100 µM (inactive) | GI50 (SNB-19): > 100 µM (inactive) | GI50 (SK-MEL-5): > 100 µM (inactive) | GI50 (UO-31): > 100 µM (inactive) | GI50 (CCRF-CEM): > 100 µM (inactive) | GI50 (HCT-15): > 100 µM | GI50 (EKVX): > 100 µM (inactive) | GI50 (ACHN): > 100 µM (inactive) | GI50 (CAKI-1): > 100 µM (inactive) | GI50 (KM12): > 100 µM (inactive) | GI50 (PC-3): > 100 µM (inactive) | GI50 (M14): > 100 µM (inactive) | GI50 (BT-549): > 100 µM (inactive) | GI50 (UACC-257): > 100 µM (inactive) | GI50 (OVCAR-5): 58.1 µM (inactive) | GI50 (A498): > 100 µM (inactive) | GI50 (DU-145): > 100 µM (inactive) | GI50 (A549): > 100 µM (inactive) | GI50 (SF-268): > 100 µM (inactive) | GI50 (SW-620): > 100 µM (inactive) | GI50 (SNB-75): > 100 µM (inactive) | GI50 (OVCAR-4): > 100 µM (inactive) | GI50 (786-0): > 100 µM (inactive) | GI50 (K562): > 100 µM (inactive) | GI50 (TK-10): > 100 µM (inactive) | GI50 (IGROV-1): > 100 µM (inactive) | GI50 (OVCAR-3): > 100 µM (inactive) | GI50 (U-251): > 100 µM (inactive) | GI50 (MCF7): > 100 µM (inactive) | GI50 (SK-OV-3): > 100 µM (inactive) | GI50 (MOLT-4): > 100 µM (inactive) | GI50 (HT-29): > 100 µM (inactive) | GI50 (NCI-H226): > 100 µM (inactive) | GI50 (MDA-MB-231): > 100 µM (inactive) | GI50 (NCI-H23): > 100 µM (inactive) | GI50 (HCC 2998): > 100 µM (inactive) | GI50 (RPMI-8226): > 100 µM (inactive) | GI50 (SK-MEL-2): 37.9 µM (inactive) | GI50 (COLO 205): > 100 µM (inactive) | GI50 (T47D): > 100 µM (inactive) | GI50 (SN12C): > 100 µM (inactive) | GI50 (SF-295): > 100 µM (inactive)

Cc1ccc(/N=N\c2c(O)ccc3cc(S(=O)(=O)O)ccc23)cc1
GI50 (MDA-MB-435): > 100 µM (inactive) | GI50 (HOP-92): > 100 µM (inactive) | GI50 (HOP-62): > 100 µM (inactive) | GI50 (NCI/ADR-RES): > 100 µM (inactive) | GI50 (OVCAR-8): > 100 µM (inactive) | GI50 (Malme-3M): > 100 µM (inactive) | GI50 (LOX IMVI): > 100 µM (inactive) | GI50 (HL-60): > 100 µM (inactive) | GI50 (HCT-116): > 100 µM (inactive) | GI50 (MDA-N): > 100 µM (inactive) | GI50 (SK-MEL-28): > 100 µM (inactive) | GI50 (UACC-62): > 100 µM (inactive) | GI50 (Hs-578T): > 100 µM (inactive) | GI50 (SNB-19): > 100 µM (inactive) | GI50 (SK-MEL-5): > 100 µM (inactive) | GI50 (UO-31): > 100 µM (inactive) | GI50 (NCI-H522): > 100 µM (inactive) | GI50 (CCRF-CEM): > 100 µM (inactive) | GI50 (HCT-15): > 100 µM | GI50 (EKVX): > 100 µM (inactive) | GI50 (ACHN): > 100 µM (inactive) | GI50 (CAKI-1): > 100 µM (inactive) | GI50 (NCI-H460): > 100 µM (inactive) | GI50 (KM12): > 100 µM (inactive) | GI50 (PC-3): > 100 µM (inactive) | GI50 (M14): > 100 µM (inactive) | GI50 (BT-549): > 100 µM (inactive) | GI50 (UACC-257): > 100 µM (inactive) | GI50 (OVCAR-5): > 100 µM (inactive) | GI50 (A498): > 100 µM (inactive) | GI50 (DU-145): > 100 µM (inactive) | GI50 (A549): > 100 µM (inactive) | GI50 (SF-268): > 100 µM (inactive) | GI50 (SW-620): > 100 µM (inactive) | GI50 (SNB-75): > 100 µM (inactive) | GI50 (OVCAR-4): > 100 µM (inactive) | GI50 (786-0): > 100 µM (inactive) | GI50 (K562): > 100 µM (inactive) | GI50 (TK-10): > 100 µM (inactive) | GI50 (IGROV-1): > 80.2 µM (inactive) | GI50 (OVCAR-3): > 100 µM (inactive) | GI50 (U-251): > 100 µM (inactive) | GI50 (MCF7): > 100 µM (inactive) | GI50 (SK-OV-3): > 100 µM (inactive) | GI50 (MOLT-4): > 100 µM (inactive) | GI50 (HT-29): > 100 µM (inactive) | GI50 (NCI-H226): > 100 µM (inactive) | GI50 (MDA-MB-231): > 100 µM (inactive) | GI50 (SF-539): > 100 µM (inactive) | GI50 (RXF 393): > 100 µM (inactive) | GI50 (NCI-H23): > 100 µM (inactive) | GI50 (HCC 2998): > 100 µM (inactive) | GI50 (RPMI-8226): > 100 µM (inactive) | GI50 (SK-MEL-2): > 100 µM (inactive) | GI50 (COLO 205): > 100 µM (inactive) | GI50 (T47D): > 100 µM (inactive) | GI50 (SN12C): > 100 µM (inactive) | GI50 (SF-295): > 100 µM (inactive)
